ChEMBL document CHEMBL1201862, “PubChem BioAssay data set” (2004)
Values belong to the compound of their own block, whether it stands above or below them. The source made the active and inactive calls.

Key:
[1] = target: T1, Sentrin-specific protease 1 (Homo sapiens, UniProt Q9P0U3); assay: Dose response confirmation of small molecule inhibitors of the catalytic domain of the SUMO protease, SENP1 in a FRET assay.; format: functional; conditions: read-out: IC50_Mean
T1 sequence (Q9P0U3 whole entry): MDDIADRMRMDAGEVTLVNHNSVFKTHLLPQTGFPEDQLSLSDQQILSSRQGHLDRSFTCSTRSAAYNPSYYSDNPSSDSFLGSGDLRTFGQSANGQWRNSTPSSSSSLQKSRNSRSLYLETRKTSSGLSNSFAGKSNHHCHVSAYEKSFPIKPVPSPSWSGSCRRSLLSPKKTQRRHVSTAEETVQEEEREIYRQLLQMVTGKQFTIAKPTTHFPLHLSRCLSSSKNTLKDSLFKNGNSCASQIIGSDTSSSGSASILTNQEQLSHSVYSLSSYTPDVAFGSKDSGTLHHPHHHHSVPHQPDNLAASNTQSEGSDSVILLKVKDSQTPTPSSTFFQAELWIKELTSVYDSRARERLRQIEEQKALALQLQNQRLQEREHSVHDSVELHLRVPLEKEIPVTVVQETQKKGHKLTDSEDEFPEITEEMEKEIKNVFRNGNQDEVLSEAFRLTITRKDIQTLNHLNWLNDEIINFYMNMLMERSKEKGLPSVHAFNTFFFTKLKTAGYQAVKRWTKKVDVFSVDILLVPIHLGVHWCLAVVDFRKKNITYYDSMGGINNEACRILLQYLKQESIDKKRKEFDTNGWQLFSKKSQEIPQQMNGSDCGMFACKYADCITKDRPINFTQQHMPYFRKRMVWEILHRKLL

[2] = target: T1, Sentrin-specific protease 1; assay: SENP1 catalytic domain blockers, concentration series – biochemical, kinetic FRET, dose response (AID 651697); format: functional; conditions: read-out: IC50_Mean
[3] = Counterscreen for IDE inhibitors: Luminescence-based cell-based high throughput dose response assay to identify compounds that are cytotoxic to HEK cells. [Related pubchem assays: 434962 (Primary screen (IDE inhibitors in singlicate)), 449730 (Counterscreen (Cytotoxicity in triplicate)), 435028 (Confirmation (IDE inhibitors in triplicate)) …; format: functional; conditions: HEK293
[4] = target: T2, Insulin-degrading enzyme (Homo sapiens, UniProt P14735); assay: Dose Response: Fluorescence polarization-based cell-based high throughput dose response assay for inhibitors of insulin-degrading enzyme (IDE). [Related pubchem assays: 434962 (Primary screen (IDE inhibitors in singlicate)), 449730 (Counterscreen (Cytotoxicity in triplicate)), 435028 (Confirmation (IDE inhibitors in triplicate)), 434984 (Summary …; format: functional
T2 sequence (P14735 whole entry): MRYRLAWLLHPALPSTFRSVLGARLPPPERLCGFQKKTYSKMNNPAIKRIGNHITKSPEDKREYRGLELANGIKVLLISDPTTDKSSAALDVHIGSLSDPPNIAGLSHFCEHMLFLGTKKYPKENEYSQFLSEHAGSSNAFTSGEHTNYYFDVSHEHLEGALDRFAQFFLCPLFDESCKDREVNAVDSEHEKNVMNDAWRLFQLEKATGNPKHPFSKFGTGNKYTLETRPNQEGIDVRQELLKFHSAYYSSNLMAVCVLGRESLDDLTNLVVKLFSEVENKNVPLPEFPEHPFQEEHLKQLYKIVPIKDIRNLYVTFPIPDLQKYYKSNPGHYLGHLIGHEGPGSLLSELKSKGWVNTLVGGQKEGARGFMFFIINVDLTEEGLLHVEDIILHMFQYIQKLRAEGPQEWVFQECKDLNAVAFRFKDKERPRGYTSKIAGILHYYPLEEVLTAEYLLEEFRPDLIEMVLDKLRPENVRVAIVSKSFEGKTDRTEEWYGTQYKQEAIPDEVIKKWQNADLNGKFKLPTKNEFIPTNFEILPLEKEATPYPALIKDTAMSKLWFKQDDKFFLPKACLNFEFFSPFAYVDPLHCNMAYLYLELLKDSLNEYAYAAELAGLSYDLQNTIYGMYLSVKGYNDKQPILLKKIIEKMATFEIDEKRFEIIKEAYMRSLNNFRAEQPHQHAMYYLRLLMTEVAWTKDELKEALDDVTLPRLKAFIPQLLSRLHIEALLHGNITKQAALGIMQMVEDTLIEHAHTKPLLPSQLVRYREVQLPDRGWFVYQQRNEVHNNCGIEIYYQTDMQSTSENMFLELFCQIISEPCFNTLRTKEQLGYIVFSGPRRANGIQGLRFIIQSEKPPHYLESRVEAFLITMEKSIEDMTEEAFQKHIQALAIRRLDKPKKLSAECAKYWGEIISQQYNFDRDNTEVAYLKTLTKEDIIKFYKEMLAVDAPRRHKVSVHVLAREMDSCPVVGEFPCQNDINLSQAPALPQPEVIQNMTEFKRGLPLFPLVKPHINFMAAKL

[5] = target: Beta-galactosidase (Escherichia coli, UniProt Q8VNN2); assay: Dose response counterscreen for EBI2 assay utilizing the enzyme, b-galactosidase.; format: functional
Beta-galactosidase, sequence (Q8VNN2 whole entry): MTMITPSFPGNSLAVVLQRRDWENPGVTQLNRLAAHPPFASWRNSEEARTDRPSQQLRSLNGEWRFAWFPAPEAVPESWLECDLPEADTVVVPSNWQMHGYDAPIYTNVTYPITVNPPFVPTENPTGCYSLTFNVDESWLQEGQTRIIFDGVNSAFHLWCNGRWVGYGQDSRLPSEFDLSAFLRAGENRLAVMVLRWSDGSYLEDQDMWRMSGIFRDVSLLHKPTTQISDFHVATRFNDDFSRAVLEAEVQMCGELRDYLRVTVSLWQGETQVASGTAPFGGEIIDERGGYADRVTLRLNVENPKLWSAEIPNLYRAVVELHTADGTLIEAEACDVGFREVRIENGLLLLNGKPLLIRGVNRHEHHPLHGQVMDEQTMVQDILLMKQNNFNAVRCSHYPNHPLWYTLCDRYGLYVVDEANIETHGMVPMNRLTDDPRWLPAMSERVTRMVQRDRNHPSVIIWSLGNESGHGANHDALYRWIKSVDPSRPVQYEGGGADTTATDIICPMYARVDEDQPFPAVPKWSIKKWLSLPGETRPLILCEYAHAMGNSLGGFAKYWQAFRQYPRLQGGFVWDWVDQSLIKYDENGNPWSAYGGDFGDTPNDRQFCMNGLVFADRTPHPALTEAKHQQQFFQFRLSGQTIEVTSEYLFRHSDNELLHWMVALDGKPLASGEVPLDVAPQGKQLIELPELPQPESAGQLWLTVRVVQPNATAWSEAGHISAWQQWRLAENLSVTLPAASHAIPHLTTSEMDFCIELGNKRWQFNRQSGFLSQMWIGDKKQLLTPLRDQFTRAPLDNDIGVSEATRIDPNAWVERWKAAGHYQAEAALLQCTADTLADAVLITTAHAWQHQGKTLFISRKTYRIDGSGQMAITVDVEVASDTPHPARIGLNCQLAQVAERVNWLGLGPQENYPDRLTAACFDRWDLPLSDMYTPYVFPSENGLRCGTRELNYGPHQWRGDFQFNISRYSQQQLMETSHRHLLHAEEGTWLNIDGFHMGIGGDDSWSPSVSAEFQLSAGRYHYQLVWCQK

[6] = target: T3, Aminopeptidase N (Plasmodium falciparum FcB1/Columbia, UniProt O96935); assay: malaria alanyl aminopeptidase activity blockers – biochemical, fluorogenic H-Leu-NHMec substrate, 1536-well (AID 1445); parameters: species or system Plasmodium falciparum 3D7, 3D7
T3 sequence (O96935 whole entry): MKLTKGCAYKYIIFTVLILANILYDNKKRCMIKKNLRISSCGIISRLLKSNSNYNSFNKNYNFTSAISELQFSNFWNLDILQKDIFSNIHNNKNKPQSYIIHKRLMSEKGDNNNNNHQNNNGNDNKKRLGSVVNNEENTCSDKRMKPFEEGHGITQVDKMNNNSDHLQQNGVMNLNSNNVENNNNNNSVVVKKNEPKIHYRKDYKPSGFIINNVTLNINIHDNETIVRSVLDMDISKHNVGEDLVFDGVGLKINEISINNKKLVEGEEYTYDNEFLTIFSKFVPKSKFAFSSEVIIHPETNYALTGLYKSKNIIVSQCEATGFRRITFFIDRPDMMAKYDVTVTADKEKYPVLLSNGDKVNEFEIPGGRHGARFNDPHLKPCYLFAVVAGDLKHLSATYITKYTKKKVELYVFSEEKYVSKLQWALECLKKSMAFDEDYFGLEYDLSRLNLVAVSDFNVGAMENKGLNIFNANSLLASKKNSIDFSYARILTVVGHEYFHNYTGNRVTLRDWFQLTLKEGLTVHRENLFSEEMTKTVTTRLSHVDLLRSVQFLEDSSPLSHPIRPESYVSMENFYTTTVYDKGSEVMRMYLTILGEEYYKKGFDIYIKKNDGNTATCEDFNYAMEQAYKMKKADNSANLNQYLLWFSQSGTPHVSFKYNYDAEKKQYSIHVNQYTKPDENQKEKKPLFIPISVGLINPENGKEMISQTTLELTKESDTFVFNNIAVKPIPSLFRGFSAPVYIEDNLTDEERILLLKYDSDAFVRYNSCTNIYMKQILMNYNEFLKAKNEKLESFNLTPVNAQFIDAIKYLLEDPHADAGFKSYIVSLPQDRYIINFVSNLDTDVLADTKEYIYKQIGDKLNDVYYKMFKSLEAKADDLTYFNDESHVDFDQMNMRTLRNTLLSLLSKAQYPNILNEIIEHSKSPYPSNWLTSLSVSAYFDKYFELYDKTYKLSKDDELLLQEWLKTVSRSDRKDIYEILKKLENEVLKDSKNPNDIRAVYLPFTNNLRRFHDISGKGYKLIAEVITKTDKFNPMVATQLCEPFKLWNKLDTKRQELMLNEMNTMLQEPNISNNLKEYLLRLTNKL

[7] = target: Histone-lysine N-methyltransferase NSD2 (Homo sapiens, UniProt O96028); format: biochemical
Histone-lysine N-methyltransferase NSD2, sequence (O96028 whole entry, the tested form may be a part): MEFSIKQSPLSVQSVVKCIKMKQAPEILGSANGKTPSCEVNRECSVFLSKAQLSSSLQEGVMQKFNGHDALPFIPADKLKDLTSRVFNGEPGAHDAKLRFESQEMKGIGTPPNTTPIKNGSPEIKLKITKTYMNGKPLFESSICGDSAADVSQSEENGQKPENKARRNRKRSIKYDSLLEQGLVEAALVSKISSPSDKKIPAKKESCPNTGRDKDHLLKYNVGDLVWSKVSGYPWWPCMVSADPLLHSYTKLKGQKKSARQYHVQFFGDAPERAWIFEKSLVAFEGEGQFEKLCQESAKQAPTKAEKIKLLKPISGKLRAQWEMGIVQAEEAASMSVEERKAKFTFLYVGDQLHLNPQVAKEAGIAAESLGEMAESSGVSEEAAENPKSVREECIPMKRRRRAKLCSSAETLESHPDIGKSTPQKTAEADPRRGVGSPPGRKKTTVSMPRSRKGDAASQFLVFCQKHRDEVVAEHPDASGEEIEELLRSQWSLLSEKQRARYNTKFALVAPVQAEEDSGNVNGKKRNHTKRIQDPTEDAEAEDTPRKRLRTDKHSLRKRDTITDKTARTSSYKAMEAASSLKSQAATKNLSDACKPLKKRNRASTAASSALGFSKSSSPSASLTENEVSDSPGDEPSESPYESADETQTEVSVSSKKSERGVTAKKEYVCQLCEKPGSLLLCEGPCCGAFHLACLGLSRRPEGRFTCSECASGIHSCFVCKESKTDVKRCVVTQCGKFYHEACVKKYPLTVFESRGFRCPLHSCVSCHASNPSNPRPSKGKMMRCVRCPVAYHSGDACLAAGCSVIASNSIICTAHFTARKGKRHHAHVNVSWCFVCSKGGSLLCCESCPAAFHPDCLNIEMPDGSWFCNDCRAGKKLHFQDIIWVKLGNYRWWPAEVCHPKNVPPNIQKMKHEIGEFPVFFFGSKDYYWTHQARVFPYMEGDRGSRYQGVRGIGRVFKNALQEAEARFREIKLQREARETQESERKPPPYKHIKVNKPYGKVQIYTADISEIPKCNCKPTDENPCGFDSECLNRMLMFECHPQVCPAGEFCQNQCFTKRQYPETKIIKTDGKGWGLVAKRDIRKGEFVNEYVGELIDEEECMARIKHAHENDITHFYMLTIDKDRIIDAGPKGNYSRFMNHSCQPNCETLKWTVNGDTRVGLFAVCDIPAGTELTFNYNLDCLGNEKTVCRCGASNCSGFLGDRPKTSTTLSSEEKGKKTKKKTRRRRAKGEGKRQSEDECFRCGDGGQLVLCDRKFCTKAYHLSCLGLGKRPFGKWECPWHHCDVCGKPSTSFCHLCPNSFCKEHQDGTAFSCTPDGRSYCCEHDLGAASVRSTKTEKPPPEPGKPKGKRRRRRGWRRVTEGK

[8] = target: T4, Carboxy-terminal domain RNA polymerase II polypeptide A small phosphatase 1 (Homo sapiens, UniProt Q9GZU7); assay: CTDSP1 inhibitors, concentration-response, biochemical, absorbance readout, ultra-high-throughput screen actives (AID 540297); format: functional
T4 sequence (Q9GZU7 whole entry): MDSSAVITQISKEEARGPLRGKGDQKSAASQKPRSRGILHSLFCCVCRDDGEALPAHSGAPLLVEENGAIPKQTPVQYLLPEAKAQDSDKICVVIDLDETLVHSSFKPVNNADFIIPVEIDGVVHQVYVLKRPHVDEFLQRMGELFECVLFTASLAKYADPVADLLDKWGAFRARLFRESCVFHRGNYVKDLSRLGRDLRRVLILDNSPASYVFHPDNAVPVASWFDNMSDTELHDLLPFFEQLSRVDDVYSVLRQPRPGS

- IC50 [1]: 4.36 µM (active)
- IC50 [2]: 8.62 µM (active)
SMILES: COc1ccc([C@H]2CC(=O)C=C(c3cccc(Cl)c3O)C2)cc1OC

SMILES: CCOc1cc(Br)cc(/C=C2\SC(Nc3ccccc3)=NC2=O)c1O
- IC50 [1]: 1.18 µM (active)
- IC50 [2]: 5.76 µM (active)
- IC50 [3]: 35.1 µM (not active)
- IC50 [4]: 12.7 µM (not active)

- IC50 [5]: > 80 µM (inactive)
SMILES: O=C(/C=C/c1ccc(F)cc1)N1CCN(c2ncccn2)CC1

- IC50 [6]: 42.1 µM (active)
- AC50 [7]: 14.1 µM (active)
- IC50 [8]: 7.47 µM (active)
SMILES: Cc1ccc(S(=O)(=O)NC2=NC(=O)/C(=C/c3ccc(Br)o3)S2)cc1
